Test results reported in patent US6624146B1, “Pharmaceutical compositions containing fibroblast growth factor-related peptides” (Agency of Industrial Science and Technology, priority 1998, dated 2003).

Legend:
[1] = Weight-reducing effect: change in body weight the day after injection into the cerebral ventricles; type: in vivo, Wistar rats
Description: This peptide was dissolved in physiological saline to prepare a 2.6 pmol/μl peptide-containing injection solution. Five μl of the injection solution (containing 13 pmol peptide) was administered into the cerebral ventricles of 10-week-old male Wistar rats, which were weighed on the next day to calculate amounts of change in weight prior to and subsequent to injection.
On the other hand, 5 μl physiological saline was administered to rats as a control in the same manner as described above, and 2.6 pmol/μl FGF-containing injection solution was administered to rats as a comparative example in the same manner as described above. Each rat was weighed on the next day to calculate amounts of change in weight prior to and subsequent to injection.

[2] = Food and water intake inhibitory effects 12 hours after injection into the cerebral ventricles; type: in vivo, Wistar rats
Description: In the same manner as in example 1, the peptide […]Try-Lys-Lys-Pro-Lys-Leu (SEQ ID NO:3) was synthesized. This peptide was dissolved in physiological saline to prepare a 2.6 pmol/μl peptide-containing injection solution. Five μl of the injection solution (containing 13 pmol peptide) was administered in the cerebral ventricles of 10-week old male Wistar rats, and the food and water intake level were measured 12 hours after administration to compare with those in the same period of the day prior to administration.
On the other hand, 5 μl physiological saline was administered as a control in the same manner as described above, and 2.6 pmol/μl FGF-containing injection solution was administered as a comparative example in the same manner as described above. Food and water intake levels were measured respectively 12 hours after administration, and were compared to those in the same period of the day prior to administration to calculate amounts of change in food and water intake.

[3] = 13 pmol into the cerebral ventricles, 12 hours, vs saline control
[4] = 10-week-old male Wistar rats, 13 pmol/5 μl into the cerebral ventricles, 12 hours after administration vs same period of the day prior

Ala-Ala-Val-Ala-Leu-Leu-Pro-Ala-Val-Leu-Leu-Ala-Leu-Leu-Ala-Val-Ala-Ala-Ala-Asn-Try-Lys-Lys-Pro-Lys-Leu (AAVALLPAVLLALLAVAAANYKKPKL; Derivative of partial peptide of fibroblast growth factors)
Weights of the rats compared to physiological saline control (in words) ([1]; 13 pmol into the cerebral ventricles, next day, vs saline control): significantly reduced
Amount of change in weight ([1]; 10-week-old male Wistar rats, 13 pmol/5 μl into the cerebral ventricles, weighed on the next day, prior vs subsequent to injection): -5.3 g
Food intake level compared to physiological saline control (in words) [2, 3]: significantly reduced
Water intake level compared to physiological saline control (in words) [2, 3]: significantly reduced
Amount of change in food intake [2, 4]: -4.8 g
Amount of change in water intake [2, 4]: -8.4 mL
